{
  "source": "ChEMBL document CHEMBL1201862",
  "about": "“PubChem BioAssay data set” (2004)",
  "assay_in_all_cases": "NCI anticancer screen, dose series, 48 h",
  "key": {"M14": {"system": "M14"}, "OVCAR-8": {"system": "OVCAR-8"}, "ACHN": {"system": "ACHN"}, "LOX IMVI": {"system": "LOX IMVI"}, "K562": {"system": "K562"}, "DU-145": {"system": "DU-145"}, "NCI-H460": {"system": "NCI-H460"}, "OVCAR-4": {"system": "OVCAR-4"}, "HOP-62": {"system": "HOP-62"}, "OVCAR-5": {"system": "OVCAR-5"}, "RPMI-8226": {"system": "RPMI-8226"}, "A498": {"system": "A498"}, "MCF7": {"system": "MCF7"}, "NCI-H522": {"system": "NCI-H522"}, "U-251": {"system": "U-251"}, "SF-268": {"system": "SF-268"}, "MOLT-4": {"system": "MOLT-4"}, "HCT-15": {"system": "HCT-15"}, "SK-OV-3": {"system": "SK-OV-3"}, "HCC 2998": {"system": "HCC 2998"}},
  "note": "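Five concentrations, 48 hours, 96-well plates. At the GI50, growth is halved.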 Activity calls are given as the source filed them. Rule as the data show it: active = GI50 up to about 1.1 µM and inactive = higher.",
  "data": [
    {"smiles": "Cc1cc(SCC(=O)c2ccccc2)nc2ccccc12", "values": [
      {"measurement": "GI50", "setting": "M14", "result": "92.3 µM (inactive)"},
      {"measurement": "GI50", "setting": "OVCAR-8", "result": "> 100 µM (inactive)"},
      {"measurement": "GI50", "setting": "ACHN", "result": "> 100 µM (inactive)"},
      {"measurement": "GI50", "setting": "LOX IMVI", "result": "> 100 µM (inactive)"},
      {"measurement": "GI50", "setting": "K562", "result": "> 100 µM (inactive)"},
      {"measurement": "GI50", "setting": "DU-145", "result": "> 100 µM (inactive)"},
      {"measurement": "GI50", "setting": "NCI-H460", "result": "> 100 µM (inactive)"},
      {"measurement": "GI50", "setting": "OVCAR-4", "result": "> 100 µM (inactive)"},
      {"measurement": "GI50", "setting": "HOP-62", "result": "88.9 µM (inactive)"},
      {"measurement": "GI50", "setting": "OVCAR-5", "result": "72.9 µM (inactive)"},
      {"measurement": "GI50", "setting": "RPMI-8226", "result": "> 100 µM (inactive)"},
      {"measurement": "GI50", "setting": "A498", "result": "> 100 µM (inactive)"},
      {"measurement": "GI50", "setting": "MCF7", "result": "> 100 µM (inactive)"},
      {"measurement": "GI50", "setting": "NCI-H522", "result": "53.7 µM (inactive)"},
      {"measurement": "GI50", "setting": "U-251", "result": "> 100 µM (inactive)"},
      {"measurement": "GI50", "setting": "SF-268", "result": "55.8 µM (inactive)"},
      {"measurement": "GI50", "setting": "MOLT-4", "result": "> 100 µM (inactive)"},
      {"measurement": "GI50", "setting": "HCT-15", "result": "> 100", "unit": "µM"}
    ]},
    {"smiles": "C/C(=N\\Nc1ccc2ccccc2n1)c1ccccc1O", "values": [
      {"measurement": "GI50", "setting": "M14", "result": "> 100 µM (inactive)"},
      {"measurement": "GI50", "setting": "OVCAR-8", "result": "56.1 µM (inactive)"},
      {"measurement": "GI50", "setting": "ACHN", "result": "> 100 µM (inactive)"},
      {"measurement": "GI50", "setting": "LOX IMVI", "result": "> 100 µM (inactive)"},
      {"measurement": "GI50", "setting": "K562", "result": "7.38 µM (inactive)"},
      {"measurement": "GI50", "setting": "DU-145", "result": "> 100 µM (inactive)"},
      {"measurement": "GI50", "setting": "NCI-H460", "result": "> 92.5 µM (inactive)"},
      {"measurement": "GI50", "setting": "OVCAR-4", "result": "> 100 µM (inactive)"},
      {"measurement": "GI50", "setting": "HOP-62", "result": "14 µM (inactive)"},
      {"measurement": "GI50", "setting": "OVCAR-5", "result": "> 100 µM (inactive)"},
      {"measurement": "GI50", "setting": "RPMI-8226", "result": "7.23 µM (inactive)"},
      {"measurement": "GI50", "setting": "A498", "result": "> 100 µM (inactive)"},
      {"measurement": "GI50", "setting": "SK-OV-3", "result": "29.8 µM (inactive)"},
      {"measurement": "GI50", "setting": "MCF7", "result": "5.31 µM (inactive)"},
      {"measurement": "GI50", "setting": "NCI-H522", "result": "> 100 µM (inactive)"},
      {"measurement": "GI50", "setting": "U-251", "result": "54.1 µM (inactive)"},
      {"measurement": "GI50", "setting": "SF-268", "result": "24.5 µM (inactive)"},
      {"measurement": "GI50", "setting": "MOLT-4", "result": "4.69 µM (inactive)"},
      {"measurement": "GI50", "setting": "HCT-15", "result": 11.4, "unit": "µM"}
    ]},
    {"smiles": "CCN(CC(O)COc1ccc2c(c1)[n+]([O-])nc(N)[n+]2[O-])C(C)=O", "note": "(centres undefined)", "values": [
      {"measurement": "GI50", "setting": "M14", "result": "> 100 µM (inactive)"},
      {"measurement": "GI50", "setting": "OVCAR-8", "result": "59.3 µM (inactive)"},
      {"measurement": "GI50", "setting": "ACHN", "result": "> 100 µM (inactive)"},
      {"measurement": "GI50", "setting": "LOX IMVI", "result": "76.6 µM (inactive)"},
      {"measurement": "GI50", "setting": "K562", "result": "79.6 µM (inactive)"},
      {"measurement": "GI50", "setting": "DU-145", "result": "> 100 µM (inactive)"},
      {"measurement": "GI50", "setting": "NCI-H460", "result": "> 100 µM (inactive)"},
      {"measurement": "GI50", "setting": "OVCAR-4", "result": "86.5 µM (inactive)"},
      {"measurement": "GI50", "setting": "HOP-62", "result": "> 100 µM (inactive)"},
      {"measurement": "GI50", "setting": "OVCAR-5", "result": "> 100 µM (inactive)"},
      {"measurement": "GI50", "setting": "RPMI-8226", "result": "> 100 µM (inactive)"},
      {"measurement": "GI50", "setting": "A498", "result": "62.1 µM (inactive)"},
      {"measurement": "GI50", "setting": "SK-OV-3", "result": "> 100 µM (inactive)"},
      {"measurement": "GI50", "setting": "MCF7", "result": "91 µM (inactive)"},
      {"measurement": "GI50", "setting": "NCI-H522", "result": "31.1 µM (inactive)"},
      {"measurement": "GI50", "setting": "U-251", "result": "> 100 µM (inactive)"},
      {"measurement": "GI50", "setting": "SF-268", "result": "80.5 µM (inactive)"},
      {"measurement": "GI50", "setting": "MOLT-4", "result": "39 µM (inactive)"},
      {"measurement": "GI50", "setting": "HCT-15", "result": "> 100", "unit": "µM"}
    ]},
    {"smiles": "O=c1/c(=C/c2ccc(-c3ccc(Cl)cc3Cl)o2)sc2n1[C@@H](c1ccc3c(c1)OCO3)C=C(c1cc(F)c(Cl)cc1Cl)N=2", "values": [
      {"measurement": "GI50", "setting": "M14", "result": "28 µM (inactive)"},
      {"measurement": "GI50", "setting": "OVCAR-8", "result": "42 µM (inactive)"},
      {"measurement": "GI50", "setting": "ACHN", "result": "69.2 µM (inactive)"},
      {"measurement": "GI50", "setting": "LOX IMVI", "result": "34.8 µM (inactive)"},
      {"measurement": "GI50", "setting": "K562", "result": "35.2 µM (inactive)"},
      {"measurement": "GI50", "setting": "DU-145", "result": "63.7 µM (inactive)"},
      {"measurement": "GI50", "setting": "NCI-H460", "result": "37 µM (inactive)"},
      {"measurement": "GI50", "setting": "OVCAR-4", "result": "33.3 µM (inactive)"},
      {"measurement": "GI50", "setting": "HOP-62", "result": "5.87 µM (inactive)"},
      {"measurement": "GI50", "setting": "OVCAR-5", "result": "58.7 µM (inactive)"},
      {"measurement": "GI50", "setting": "RPMI-8226", "result": "26.1 µM (inactive)"},
      {"measurement": "GI50", "setting": "A498", "result": "2.26 µM (inactive)"},
      {"measurement": "GI50", "setting": "SK-OV-3", "result": "21.5 µM (inactive)"},
      {"measurement": "GI50", "setting": "MCF7", "result": "26 µM (inactive)"},
      {"measurement": "GI50", "setting": "NCI-H522", "result": "49.1 µM (inactive)"},
      {"measurement": "GI50", "setting": "U-251", "result": "29.4 µM (inactive)"},
      {"measurement": "GI50", "setting": "SF-268", "result": "46.3 µM (inactive)"},
      {"measurement": "GI50", "setting": "MOLT-4", "result": "28.2 µM (inactive)"},
      {"measurement": "GI50", "setting": "HCT-15", "result": 34.1, "unit": "µM"}
    ]},
    {"smiles": "CCOC1c2cc(OC)c(OC)cc2-c2ccc3ccccc3c2N1C", "note": "(centres undefined)", "values": [
      {"measurement": "GI50", "setting": "M14", "result": "19.3 µM (inactive)"},
      {"measurement": "GI50", "setting": "OVCAR-8", "result": "12.2 µM (inactive)"},
      {"measurement": "GI50", "setting": "ACHN", "result": "30.3 µM (inactive)"},
      {"measurement": "GI50", "setting": "LOX IMVI", "result": "14.9 µM (inactive)"},
      {"measurement": "GI50", "setting": "K562", "result": "7.16 µM (inactive)"},
      {"measurement": "GI50", "setting": "DU-145", "result": "15 µM (inactive)"},
      {"measurement": "GI50", "setting": "NCI-H460", "result": "12.2 µM (inactive)"},
      {"measurement": "GI50", "setting": "OVCAR-4", "result": "19 µM (inactive)"},
      {"measurement": "GI50", "setting": "HOP-62", "result": "15.7 µM (inactive)"},
      {"measurement": "GI50", "setting": "OVCAR-5", "result": "21.8 µM (inactive)"},
      {"measurement": "GI50", "setting": "HCC 2998", "result": "14.1 µM (inactive)"},
      {"measurement": "GI50", "setting": "RPMI-8226", "result": "10.7 µM (inactive)"},
      {"measurement": "GI50", "setting": "SK-OV-3", "result": "22 µM (inactive)"},
      {"measurement": "GI50", "setting": "MCF7", "result": "12.4 µM (inactive)"},
      {"measurement": "GI50", "setting": "NCI-H522", "result": "3.02 µM (inactive)"},
      {"measurement": "GI50", "setting": "U-251", "result": "6.41 µM (inactive)"},
      {"measurement": "GI50", "setting": "SF-268", "result": "2.05 µM (inactive)"},
      {"measurement": "GI50", "setting": "MOLT-4", "result": "4.43 µM (inactive)"},
      {"measurement": "GI50", "setting": "HCT-15", "result": 60.1, "unit": "µM"}
    ]}
  ]
}
